Our source for the TGI and GI50 values is PubChem BioAssay (NCI).

Experiment in all cases: inhibition of tumour cell growth, NCI panel, 48 h
Assay [1] concerns IGROV1 ovarian.
For assay [2], the system named is SF-295 CNS.
Assay [3] has as its system K-562 leukemia.
In assay [4] the test system is SK-MEL-5 melanoma.
In assay [5] the test system is COLO 205 colon.
Assay [6] relates to HL-60(TB) leukemia.
In assay [7] the test system is CCRF-CEM leukemia.
For assay [8], the system named is KM12 colon.
The subject of assay [9] is MDA-MB-435.

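Five concentrations, 48 hours, 96-well plates. At the GI50, growth is halved. TGI marks complete inhibition of growth.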 Some results are limits rather than exact numbers.

On to `CCN(CC)CCOc1ccc(C(=C2CCCCC2)c2ccc(OCCN(CC)CC)cc2)cc1`, for which the TGI in assay [1] came out at 3.58 µM; in [2], 3.3 µM; in [3], 1.02 µM; in assay [4], 2.95 µM; in [5] it was 2.7 µM; in assay [6], 2.56 µM. Besides, the TGI in assay [7] was found to be 3.25 µM; in assay [8], 2.57 µM.

For the molecule `ClC[Si]12OCCN(CCO1)CCO2`, the TGI in [1], in [2], in [3], in [4], in [5] and in assay [6] was above 100 µM each time. For the same molecule, the TGI in assay [7] and in assay [8] was above 100 µM in each case.

Turning to `COc1ccc(C(=O)O)c(Cc2ccc3ccccc3c2)c1`, the TGI in assay [1], in [2], in assay [3], in assay [4], in assay [5] and in [6] was above 100 µM each time. Further, the TGI in assay [7] and in assay [8] was above 100 µM in each case.

For `Cc1cccc(NC(=O)CC#N)c1Cl`, the TGI in assay [1], in assay [2], in [3], in assay [6], in assay [7] and in [8] was above 100 µM throughout.

In the case of `COC(=O)NN1C(C)=C(C(=O)OC)C2(CCOC2=O)C1(C)O` (centres undefined), the TGI in [1], in assay [2], in assay [3], in assay [5], in [6] and in [7] was above 100 µM each time. This molecule displayed a TGI in [8] above 100 µM.

As to `CC1=C(c2cc(C(=O)Nc3nccs3)nc(NC#N)n2)Sc2ccccc2N1`, the TGI in assay [1], in [2], in assay [3], in [4], in assay [5] and in assay [6] was above 100 µM throughout. The TGI in assay [7] and in assay [8] was above 100 µM throughout.

For the molecule `c1ccc(C2N3CCCCC3[C@@H]3c4[nH]c5ccccc5c4CCN23)cc1` (some centres undefined), the TGI in assay [1] is above 100 µM; in [2], above 100 µM; in assay [3], above 100 µM; in [4], above 100 µM; in [5], 48.2 µM; in assay [6], 48.8 µM. Besides, the TGI in assay [7] is above 100 µM.

As for `CC1(C)OC(=O)C(=C2CC(c3ccccc3)c3ccccc32)C(=O)O1` (centres undefined), the TGI in assay [1], in assay [2], in assay [3], in [4], in [5] and in [6] was above 100 µM each time. For the same molecule, the TGI in assay [7] was above 100 µM.

As to `O=C([O-])c1ccccc1Nc1ccccc1[O-].[Ni+3].[OH3+].[OH3+].[OH3+]`, the GI50 in [1], in assay [2], in assay [3], in [4], in assay [5] and in [7] was above 100 µM each time. Further, the GI50 in assay [8] is above 100 µM. The TGI in [1], in [2], in [3], in assay [4], in [5] and in assay [7] was above 100 µM throughout. In assay [8], this molecule displayed a TGI above 100 µM.

Regarding `Cc1nn(-c2ccc(Br)cc2)c(C)c1CC(=O)c1cc(O)ccc1O`, the GI50 in [1] is 17.2 µM; in [2], 14.9 µM; in assay [3], 3.02 µM; in [4], 6.84 µM; in assay [5], 16.4 µM; in assay [9] it was 6.92 µM. The GI50 in assay [6] is 11.9 µM; in assay [7], 19 µM; in assay [8] it was 5.91 µM. Moreover, the TGI is above 50 µM in assay [1]; 30.3 µM in assay [2]; 29.5 µM in assay [3]; 20.3 µM in [4]; above 50 µM in assay [5]; above 50 µM in assay [9]. The TGI in assay [6], in [7] and in assay [8] was above 50 µM in each case.

Consider `CN(C)/C(N)=N/C(N)=S`, for which the TGI in assay [1], in assay [2], in assay [3], in [5], in assay [6] and in assay [8] was above 100 µM each time.

In the case of `COc1ccc(/C(C)=N/NC(N)=S)c(OC)c1`, the TGI in assay [1], in assay [2], in assay [3], in [4], in assay [5] and in [6] was above 100 µM in each case. Besides, the TGI in assay [7] and in assay [8] was above 100 µM in each case.

Consider `CCC/C(=N\NC(=O)c1cc2ccccc2cc1O)C(CC)C(=O)CCC(=O)N(Cc1ccccc1)Cc1ccccc1` (centres undefined), for which the TGI was above 100 µM in assay [1]; above 100 µM in assay [2]; 69.9 µM in [3]; 60.9 µM in [4]; 69.5 µM in assay [5]; 40.1 µM in assay [6]. Moreover, the values for the TGI in assay [7] and in assay [8] were 41.7 µM and above 100 µM, respectively.

`BrC12c3ccccc3Sc3ccccc3C1(Br)c1ccccc12` (centres undefined): the TGI is above 100 µM in assay [1]; 61.4 µM in assay [2]; above 100 µM in [3]; 30.8 µM in [4]; 76.3 µM in [5]; 29.1 µM in assay [6]. Further, the values for the TGI in assay [7] and in assay [8] were 50.1 µM and 38.9 µM, respectively.

For the molecule `COc1ccc(C#CCC(OC2OC(CO)C(O)C(O)C2O)C(O)c2ccc(OC)c(OC)c2)cc1OC` (centres undefined), the TGI in assay [1], in [2], in assay [3], in assay [4], in assay [5] and in assay [6] was above 100 µM each time. Further, the TGI in assay [7] and in assay [8] was above 100 µM throughout.
